Series [1] deals with Human Melanoma cancer cell, Malme-3M. Nature of the series: Relative cell viability CCK-8, Malme-3M. Format: cell-based. To be noted: 48 hours. As to the method: Human-derived breast cancer cell line MCF-7, human-derived lung cancer cell line A549, human-derived colorectal cancer cell line HCT-116, human pancreatic cancer cell line AsPC-1, glioblastoma cell line A172, and melanoma cell line Malme-3M were obtained from the Korean Cell Bank. gastric cancer cell line SNU-719, and bladder cancer cell line T24 were cultured in RPMI-1640 medium containing 10% FBS.
(§1) Following stabilization, the cells were harvested using Trypsin-EDTA treatment, centrifuged at 1,200 rpm for 3 minutes, the supernatant was removed, and the cells were resuspended in the same medium. They were then seeded into a 96-well plate (Costar 96-well cell culture plate, Corning) at 100 μL per well, and the conditions were adjusted as indicated in Table 5.
(§2) The cells were cultured in a 5% CO2 incubator at 37° C. for 24 hours, and after stabilization of the cells, each plate was washed with 200 μL of PBS per well and treated with 50 μL of culture medium per well.
(§3) After that, 10 μL of CCK-8 was added to each well, and the plate was incubated again at 37° C. in a 5% CO2 incubator for 2 hours.
(§4) In other words, when the survival rate of untreated cells (DMSO) is set at 100%, the relative cell survival rate in each group treated with the drug at different concentrations is indicated.

For series [2], the system named is Human multiple myeloma, KMS34. Briefly: Relative cell viability, KMS34. It is filed as cell-based. Conditions: KMS34 cells, 1 μM, relative to untreated cells. On the procedure:
as §3, §4

Series [3] deals with Human multiple myeloma, KMS26. Briefly: Relative cell viability, KMS26. Format: cell-based. Conditions: KMS26 cells, relative to untreated cells. As to the method:
as §3, §4

Series [4] has as its system Human Kidney Cancer cell line, ACHN. Briefly: Relative cell viability CCK-8, ACHN. Format: cell-based. Conditions: 48 hours. As to the method: Similarly, human-derived cervical cancer cell line HeLa and renal cancer cell line ACHN, obtained from the Korean Cell Bank, were cultured in DMEM medium containing 10% FBS, 100 U/mL penicillin, and 100 μg/mL streptomycin.
as §1, §2
The compounds according to the present invention or the control group (DMSO) were added at concentrations of 0, 10, 30, and 50 μM in 50 μL aliquots to the plates, and the plates were cultured at 37° C. in a 5% CO2 incubator for 48 hours.
as §3, §4

The subject of series [5] is C57BL/6 mice with skin grafts. Briefly: Skin graft animal model (BALB/c donor, C57BL/6 recipient). To be noted: 0.15 mg/kg twice daily. Format: in vivo, mouse. On the procedure: To evaluate the immune-suppressive effects of the compounds according to the present invention, a skin graft animal model was established, and the efficacy of the compounds was analyzed in the model.
First, female BALB/c mice aged 7 weeks and weighing approximately 20 g were used as donor animals, and female C57BL/6 mice of the same age and weight were used as recipient animals. All experimental animals were supplied by HanabioTech Co., Ltd.
Prior to the experiment, the animals were acclimatized in SPF-certified facilities for one week and then used in the experiment. The housing conditions were maintained at a temperature of 22±2° C., relative humidity of 55+10%, and a 12-hour light-dark cycle.
To establish the skin graft model, a anesthetic solution consisting of ketamine, […], and PBS in a volume ratio of 1:1:3 was administered intraperitoneally to C57BL/6 mice to induce anesthesia.
The hair on the dorsal side of the anesthetized mice was removed and disinfected, followed by excision of the full-thickness skin using an 8 mm punch. Subsequently, skin of the same size was harvested from donor mice (BALB/c) and transplanted. […]
Subsequently, the proportions of CD3- and B220-positive cells were analyzed using a flow cytometer.

The target in series [6] is T1, full-length PDK1 (PDK1-FL) (Homo sapiens, UniProt O15530).
T1 construct: the full-length (PDK1-FL) protein of human-derived PDK1; inferred from Ni-NTA purification; made in house; host or cells: Sf9 insect cells, baculovirus expression system
Briefly: Microscale Thermophoresis (MST) binding affinity, full-length PDK1. As to the method:
Microscale Thermophoresis (MST) analysis was performed to quantitatively measure the binding affinity between PDK1 protein and substrate peptides (PDKTide) or the company-developed low-molecular-weight compound (GO88).
The target proteins were the full-length (PDK1-FL) protein of human-derived PDK1 and the Protein Kinase Domain (PKD) fragment, which were expressed using a baculovirus expression system in insect cell lines (Sf9).
The purity of the purified proteins was confirmed by SDS-PAGE and Coomassie Brilliant Blue staining.
The purified protein was labeled with a fluorescent label using the Monolith NT™ RED-NHS Protein Fluorescent Labeling Kit (NanoTemper).
Specifically, 20 μM of the protein was dissolved in PBS (pH 7.4) buffer, mixed with the fluorescent reagent, and reacted at room temperature under dark conditions for 30 minutes. The mixture was then buffered with MST analysis buffer (50 mM HEPES, 150 mM NaCl, 1 mM DTT, 0.05% Tween-20, pH 7.5). […]
The reaction samples were injected into an MST-specific capillary (NanoTemper) and analyzed using a Monolith NT.115 device (NanoTemper) under laser intensity conditions. […]
The measured data were analyzed using MO.Affinity Analysis software (NanoTemper), and the dissociation constant (Kd) was calculated from the binding curve.
For orientation: In MST a laser heats a spot of the sample, and binding alters the fluorescence response.

For series [7], the system named is Human multiple myeloma, KMS12PE. Nature of the series: Relative cell viability, KMS12PE. Format: cell-based. Conditions: KMS-12-PE. As to the method: as §3, §4

T1 sequence (O15530 whole entry): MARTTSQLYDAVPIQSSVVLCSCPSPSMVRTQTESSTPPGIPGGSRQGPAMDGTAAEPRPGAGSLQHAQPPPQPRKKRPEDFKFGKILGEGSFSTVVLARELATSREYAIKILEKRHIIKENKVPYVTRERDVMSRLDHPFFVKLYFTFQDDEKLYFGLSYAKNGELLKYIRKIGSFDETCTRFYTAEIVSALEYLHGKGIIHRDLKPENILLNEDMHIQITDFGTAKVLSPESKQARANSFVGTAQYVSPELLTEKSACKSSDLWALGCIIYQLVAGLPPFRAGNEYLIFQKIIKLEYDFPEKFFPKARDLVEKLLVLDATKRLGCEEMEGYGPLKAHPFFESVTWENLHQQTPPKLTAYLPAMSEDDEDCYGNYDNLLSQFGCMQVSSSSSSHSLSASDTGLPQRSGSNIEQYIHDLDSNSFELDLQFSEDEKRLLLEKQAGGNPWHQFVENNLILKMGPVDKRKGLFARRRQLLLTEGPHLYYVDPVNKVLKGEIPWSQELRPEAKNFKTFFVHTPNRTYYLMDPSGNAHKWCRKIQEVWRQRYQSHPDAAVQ

In the case of `CC1(C)CN(CCCCCCCCCCCCC(=O)Nc2nc(N)c3[nH]cnc3n2)CCO1` [Compound 11, 12-[4-(2,2-dimethylmorpholin-4-yl)]dodecyl-N-(6-aminopurine-2-yl) carboxamide], the “Relative cell viability (%), Malme-3M” value in series [1] (1 μM) came to 44.06%; in series [1] (10 μM), 37.40%; in series [1] (30 μM), 36.80%; in series [1] (50 μM), 38.87%. In addition, the “Relative cell viability (%)” value amounted to 26.19% in series [2] and 31.19% in series [3] (1 μM).
As a reminder, the viability is the share of living cells, or the viability signal relative to a control. As to `Nc1nc(NC(=O)CCCCCCCCCCCCN2CCN(CCO)CC2)nc2nc[nH]c12` [Compound 15, 12-[4-(2-hydroxyethyl)piperazin-1-yl]dodecyl-N-(6-aminopurine-2-yl) carboxamide], in series [4], the viability at 1 µM worked out at 31.7%, the viability at 10 µM worked out at 30%, the viability at 30 µM was 30.6% and the viability at 50 µM worked out at 30.3%.
For `Nc1ncccc1C(=O)NCCCCCCCCCCCCN1CCNCC1` [Compound 5, 2-Amino-N-(12-(piperazin-1-yl)dodecyl)-nicotinamide] the same measures were 29.5%, 30%, 29.2% and 28.3%.
The term Kd denotes the concentration at which binding is half-saturated. As for `Nc1ncccc1C(=O)NCCCCCCCCCCCCN1CCNCC1` [Compound 14, 2-Amino-N-(12-(piperazin-1-yl)dodecyl)nicotinamide], the results for the “Animals with graft pinkening and good blood flow” value in series [5] (day 10 post-transplantation) and in series [5] (day 15 post-transplantation) were “three out of five” and “one out of five”, respectively. Further, the dissociation constant (Kd) in series [6] (FIG. 48, read-out: Dissociation constant (Kd), full-length PDK1) is about 58.4 nM. Moreover, the “Binding affinity of full-length PDK1 compared to the PKD fragment” value in series [6] (ratio of Kd values) is recorded as “approximately six times stronger binding affinity”. In addition, the viability at 1 µM in series [1] (Homo sapiens, Malme-3M, 1 μM) stood at 43.7%. Besides, the viability at 10 µM in series [1] (Homo sapiens, Malme-3M, 10 μM) turned out to be 31.2%. In addition, in series [1] (Homo sapiens, Malme-3M, 30 μM), the viability at 30 µM came out at 16.3%. This compound also yielded a viability at 50 µM in series [1] (Homo sapiens, Malme-3M, 50 μM) of 15.9%.
Turning to `Nc1ncccc1C(=O)NCCCCCCCCCCCCF` [Compound 57, 2-Amino-N-(12-fluoro-dodecyl)-nicotinamide], the viability at 10 µM worked out at 41.7% in series [7] and 44.4% in series [3] (Homo sapiens, KMS-26, 10 μM). This compound also returned a viability at 30 µM in series [3] (Homo sapiens, KMS-26, 30 μM) of 43.1%.

These data come from patent publication US20260183274A1, “PDK1 REGULATORY COMPOUND AND COMPOSITION CONTAINING THE SAME” (PROVIBIO CO., LTD., priority 2024, published 2026).
